Source: patent EP0312245A2, “Polycyclic compounds and pharmaceutical compositions thereof” (NORISTAN HOLDINGS LIMITED, priority 1987, dated 1989)
Several values for one entry are separate records, joined by “and”; a condition that tells them apart may be missing. Identical values can stand only once.

Key:
BD-9 rats (normatensive) = assay: Antihypertensive test: mean arterial pressure in normotensive BD-9 rats; format: in vivo, rat; parameters: mean arterial BP (individual rats): unit not given here; details: 1mg/kg intravenous; for mean arterial BP (individual rats): rats 1-6, 1 mg/kg; for mean arterial BP, Av. / Average % change in mean arterial BP: standard error of the mean in brackets; for Average % change in mean arterial BP: versus pre-dose control
Procedure: (§1) The effect of Compound 3 on the mean arterial pressure was determined on spontaneously hypertensive rats (SHR ) by means of direct pressure transducing. Groups of 6 male rats of mass 210-300g were used. The average of ten pressure determinations was used. Normotensive (BD-9) rats were used as animal controls, while normal saline solution (containing some traces of polyethylene glycol and ethanol to aid in the solution of the test compounds) was used as solvent and as solvent control.
(§2) After verifying the mass of the animal, it was placed under general anaesthesia by administering 60mgikg pentobarbitone (Sagatal@) intraperitonially. The tracheal tube and carotid artery were both exposed by dissection. An intranule was introduced into the trachea as aid ventilation. The carolid artery was canalated and coupled to a pressure sensor. The sysolic, diastolic and mean arterial pressure were monitored via a Spacelab 514 patient monitor and registered on a Vitatek 551 plotter. During the experiment the exposed tissue of the rat was covered with guaze and kept damp with normal saline.
(§3) The drugs and solvent controls were administered intravenously into the dorsal penile vein after stabilization of the blood pressure (BP) had occurred. After drug administration, the BP was recorded every 5 minutes for a period of 30 min.

[1] = test system: isolated rabbit ear preparation; assay: Rabbit ear perfusion test (adrenaline-induced tone, perfusion pressure); details: Oryctolagus cuniculus, Table 6, read-out: Corrected mean % change in perfusion pressurre
Procedure: Female New Zealand White rabbits (approximately 4kg) were anaesthetised with Sagatal ® (0.5ml/kg).
The central ear artery was cannulated using a 20 G catheter and the ear cut off at its base. Heparinised (5ml, 200 IU;ml) Krebs bicarbonate solution was perfused through the ear to expel the blood. The ear was placed in a warming jacket at 37°C and attached via the arterial catheter to the perfusion pump. Perfusion of the ear with aerated (95% 025% C02)Krebs bicarbonate solution at 37° C was commenced at a rate of 6.5ml/min using a Watson Marlow peristaltic pump. The perfusion pressure was monitored continuously using a pressure transducer (Type 4-327-1221, Consoliated Electrodynamics) coupled to a Devices Recorder.
Following an equilibration period of 15 minutes, increased tone was induced in the preparation by addition of adrenaline (1µg/ml) to the perfusion fluid.
After a stable tone was observed, various concentrations of test compounds were injected into the perfusion fluid and examined for their effect on the perfusion pressure. The effect of vehicle (0.2ml, 50% Krebs 50% ethanol) was also tested on the ear preparation.

[2] = test system: spontaneously hypertensive rats (SHR ); assay: Antihypertensive test: mean arterial pressure in spontaneously hypertensive rats; format: in vivo, rat; parameters: mean arterial BP (individual rats): unit not given here; details: SHR, 1mg/kg intravenous; for mean arterial BP (individual rats): rats 1-6, 1 mg/kg; for mean arterial BP, Av. / Average % change in mean arterial BP: standard error of the mean in brackets; for Average % change in mean arterial BP: versus pre-dose control
Procedure: as §1, §2, §3

Question: How did the “mean arterial BP (individual rats)” value (BD-9 rats (normatensive); 5 min) turn out when `COC(=O)C1=C(C)NC(C)=C(C(=O)OC)C1c1ccccc1[N+](=O)[O-]` [Nifedipine] was run?
Answer: 67 and 59 (2×) and 80 and 74 and 60

Question: What about the “mean arterial BP, Av.” value (BD-9 rats (normatensive); 5 min) of the same compound?
Answer: 67(4)

Question: What about the “Average % change in mean arterial BP” value (BD-9 rats (normatensive); 5 min) of the same compound?
Answer: 38(5.5) %

Question: And the “mean arterial BP (individual rats)” value (BD-9 rats (normatensive); 10 min)?
Answer: 65 and 67 (2×) and 74 and 69 and 66

Question: And the “mean arterial BP, Av.” value (BD-9 rats (normatensive); 10 min)?
Answer: 68(1)

Question: And the “Average % change in mean arterial BP” value (BD-9 rats (normatensive); 10 min)?
Answer: 37(4.4) %

Question: And the “mean arterial BP (individual rats)” value (BD-9 rats (normatensive); 15 min)?
Answer: 68 and 66 (2×) and 65 and 74 and 63

Question: And the “mean arterial BP, Av.” value (BD-9 rats (normatensive); 15 min)?
Answer: 67(2)

Question: What about the “Average % change in mean arterial BP” value (BD-9 rats (normatensive); 15 min) of the same compound?
Answer: 38(3.8) %

Question: What about the “mean arterial BP (individual rats)” value (BD-9 rats (normatensive); 20 min) of the same compound?
Answer: 67 and 60 and 62 and 77 and 65 and 64

Question: What about the “mean arterial BP, Av.” value (BD-9 rats (normatensive); 20 min) of the same compound?
Answer: 66(2)

Question: What about the “Average % change in mean arterial BP” value (BD-9 rats (normatensive); 20 min) of the same compound?
Answer: 39(3.1) %

Question: And the “mean arterial BP (individual rats)” value (BD-9 rats (normatensive); 25 min)?
Answer: 63 (2×) and 55 and 62 and 80 and 67

Question: What about the “mean arterial BP, Av.” value (BD-9 rats (normatensive); 25 min) of the same compound?
Answer: 65(3)

Question: And the “Average % change in mean arterial BP” value (BD-9 rats (normatensive); 25 min)?
Answer: 40(2.8) %

Question: What about the “mean arterial BP (individual rats)” value (BD-9 rats (normatensive); 30 min) of the same compound?
Answer: 61 and 57 and 63 and 79 and 60 and 62

Question: What about the “mean arterial BP, Av.” value (BD-9 rats (normatensive); 30 min) of the same compound?
Answer: 64(3)

Question: What about the “Average % change in mean arterial BP” value (BD-9 rats (normatensive); 30 min) of the same compound?
Answer: 41(3.4) %

Question: And the inhibition at 0.01 mg ([1]; dose 10 μg)?
Answer: 4%

Question: And the inhibition at 0.0316 mg ([1]; dose 31.6 μg)?
Answer: 0.5%

Question: What about the inhibition at 0.1 mg ([1]; dose 100 μg) of the same compound?
Answer: 9.5%

Question: What about the inhibition at 0.316 mg ([1]; dose 316 μg) of the same compound?
Answer: -26%

Question: And the inhibition at 1 mg ([1]; dose 1000 μg)?
Answer: 39.5%

Question: What about the “mean arterial BP (individual rats)” value ([2]; 5 min) of the same compound?
Answer: 105 and 67 and 88 and 85 and 80 and 74

Question: What about the “mean arterial BP, Av.” value ([2]; 5 min) of the same compound?
Answer: 83(5)

Question: What about the “Average % change in mean arterial BP” value ([2]; 5 min) of the same compound?
Answer: 44(5.4) %

Question: What about the “mean arterial BP (individual rats)” value ([2]; 10 min) of the same compound?
Answer: 96 and 64 and 104 and 88 and 81 and 74

Question: And the “mean arterial BP, Av.” value ([2]; 10 min)?
Answer: 85(6)

Question: What about the “Average % change in mean arterial BP” value ([2]; 10 min) of the same compound?
Answer: 43(6.0) %

Question: And the “mean arterial BP (individual rats)” value ([2]; 15 min)?
Answer: 95 and 68 and 107 and 93 and 84 and 77

Question: And the “mean arterial BP, Av.” value ([2]; 15 min)?
Answer: 87(6)

Question: What about the “Average % change in mean arterial BP” value ([2]; 15 min) of the same compound?
Answer: 41(5.8) %

Question: And the “mean arterial BP (individual rats)” value ([2]; 20 min)?
Answer: 93 and 69 and 92 and 100 and 83 and 80

Question: What about the “mean arterial BP, Av.” value ([2]; 20 min) of the same compound?
Answer: 86(5)

Question: What about the “Average % change in mean arterial BP” value ([2]; 20 min) of the same compound?
Answer: 42(4.2) %

Question: What about the “mean arterial BP (individual rats)” value ([2]; 25 min) of the same compound?
Answer: 95 and 71 and 93 and 106 and 79 and 84

Question: What about the “mean arterial BP, Av.” value ([2]; 25 min) of the same compound?
Answer: 88(5)

Question: And the “Average % change in mean arterial BP” value ([2]; 25 min)?
Answer: 41(4.4) %

Question: And the “mean arterial BP (individual rats)” value ([2]; 30 min)?
Answer: 95 and 73 and 93 and 110 and 81 and 85

Question: What about the “mean arterial BP, Av.” value ([2]; 30 min) of the same compound?
Answer: 90(5)

Question: And the “Average % change in mean arterial BP” value ([2]; 30 min)?
Answer: 40(4.3) %
